Reference: US7732467B2, “Method for reducing amyloid deposition, amyloid neurotoxicity and microgliosis” (Alzheimer's Institute of America, Inc., priority 2003, dated 2010)

How the values were obtained:
[1] = system: plasma Aβ in TgPS/APPsw mice; assay: Plasma Aβ levels in TgPS/APPsw mice, human Aβ1-40 ELISA; assay type: in vivo, mouse; details: 1.5 mg/kg I.P. every day for three and one half weeks; 2 year old TgPS/APPsw mice
Experimental: Following this treatment, 100 μl of blood were collected from the tail vein of the animals using EDTA (4%) as an anticoagulant. Blood samples were centrifuged at 4000 g for 1 min and the plasma was collected and diluted four times before being assayed for human Aβ1-40 using a commercially available human Aβ1-40 ELISA (Biosource, CA).

[2] = system: N9 murine microglial cells; assay: LPS-induced microglial activation in vitro, TNF-α production by ELISA; assay type: cell-based, mouse
Experimental: Microglial activation is determined by TNF-α production (pg/ml) measured by ELISA;
N9 murine micoglial cells are well characterized scavenger murine microglial clones derived from embryonic mouse brain. The extent of microglial activation was determined by TNF-α production (pg/ml) measured by ELISA.

[3] = system: human neuronal progenitor cells (HNPC); assay: Aβ neurotoxicity, LDH release from cells treated with pre-aggregated Aβ1-40; assay type: cell-based; details: 100 nM nilvadipine along with 30 μM AgAβ, three days
Experimental: Neurotoxicity is assessed by measuring the amount of lactic dehydrogenase (LDH) released from cells;
HNPC cells differentiate into neurons readily upon treatment with cyclic AMP. Cyclic AMP (1 mM) (Sigma) was added to the culture medium and the HNPC cells were incubated at 37° C. for 48 hours or more under serum free conditions. […] Neurotoxicity was assessed by measuring the amount of lactic dehydrogenase (LDH; an intracellular enzyme found in all cells) released from the cells.

[4] = system: human glioblastoma cells transfected with APPsw; assay: APP processing, Aβ1-40 production in culture medium by ELISA; assay type: cell-based
Experimental: Production of Aβ1-40 in the culture medium was measured by ELISA.

COC(=O)C1=C(C#N)NC(C)=C(C(=O)OC(C)C)C1c1cccc([N+](=O)[O-])c1 (stereo not drawn) [nilvadipine, isopropyl-3-methyl-2-cyano-1,4-dihydro-6-methyl-4-(m-nitrophenyl)-3,5-pyridine-dicarboxylate]
increase in plasma levels of Aβ compared to control animals [1]: 42%
TNF-α production ([2]; 50 nM nilvadipine, no LPS, N9 cells): about 40 pg/ml
TNF-α production ([2]; 1 μg/ml LPS plus 50 nM nilvadipine, 24 hours, N9 cells (LPS alone about 820 pg/ml)): about 670 pg/ml
TNF-α production ([2]; LPS plus 500 nM nilvadipine, 24 hours, N9 cells (LPS alone about 820 pg/ml)): about 610 pg/ml
decrease in LDH release [3]: about 44%
reduction of Aβ1-40 production ([4]; 50 nM, 24 hours): about 9%
reduction of Aβ1-40 production ([4]; 50 nM, 48 hours): about 18%
reduction of Aβ1-40 production ([4]; 250 nM, 24 hours): about 15%
reduction of Aβ1-40 production ([4]; 250 nM, 48 hours): about 5%
